From patent publication US12419887B2, “Transitioning patients treated for pulmonary arterial hypertension to selexipag” (ACTELION PHARMACEUTICALS LTD, priority 2019, dated 2025)

How the values were obtained:
Assay type in all cases: in vivo, human
[1] = system: patients being treated for pulmonary arterial hypertension transitioned from a non-selexipag PPA; assay: Change from baseline in 6-minute walk distance (6MWD) after transition to selexipag
Description: (§1) In this example, the effectiveness of transitioning patients from a non-selexipag PPA to selexipag was investigated. Patients were followed for up to 18 months and data were collected at the time of initiation, enrollment, and approximately quarterly post-enrollment. Eligible patients were aged ≥18 years and either newly initiated on selexipag at the time of enrollment or were already receiving selexipag and have a documented titration regimen.
(§2) “Transitioned patients” were defined as patients who were (i) taking a non-selexipag PPA for ≥30 days at the time of selexipag initiation who stopped the initial agent ≤7 days before selexipag initiation; or (ii) continued taking the initial, non-selexipag PPA when they initiated selexipag and gradually transitioned off that agent.
(§3) Assessments performed closest to selexipag initiation were considered to be “baseline.” Data at 6 and 12 months post-baseline were as follows (i) the window for the 6-month measurements was >0 months and <9 months; (ii) the window for the 12-month measurements was ≥9 months and <16 months; and (iii) the assessment closest to the 6- or 12-month time point, respectively, was used.

[2] = system: patients being treated for pulmonary arterial hypertension; assay: Safety: selexipag discontinuation and adverse events leading to discontinuation
Description: as §1
AEs known to be associated with the selexipag mechanism of action were only reported if they were serious, led to selexipag discontinuation, or reflected an unusual pattern of severity.
Safety data were collected only for the period during which patients were enrolled. The median total duration of selexipag treatment on study was 13.7 months (IQR: 9.1-17.8 months) for all patients: 13.8 months (IQR: 9.2-17.8 months) for patients in the inhaled/oral group and 13.4 months (IQR: 6.8-15.9 months) for patients in the parenteral group.

[3] = system: patients being treated for pulmonary arterial hypertension transitioned from a non-selexipag PPA; assay: Change from baseline in assessed risk category after transition to selexipag
Description: as §3
Risk categories were assigned. Seven variables were used: World Health Organization or New York Heart Association functional class (FC), 6-minute walk distance (6MWD), N-terminal prohormone of brain natriuretic peptide (NT-proBNP), brain natriuretic peptide (BNP), and hemodynamic parameters, including right atrial pressure, cardiac index, and mixed venous oxygen saturation. If both NT-proBNP and BNP were available, the risk classification of each value was averaged together and the mean was used in the risk categorization. Thresholds from the 2015 European Society of Cardiology/European Respiratory Society Guidelines were applied to assign a risk score for each available variable: 1=low risk, 2=intermediate risk, and 3=high risk. The risk score from all available variables was then averaged. The resulting number was rounded to the nearest integer to produce the patient's individual risk category: 1=low risk, 2=intermediate risk, and 3=high risk

[4] = system: patients being treated for pulmonary arterial hypertension transitioned from a non-selexipag PPA; assay: Change in WHO/NYHA functional class (FC) from baseline after transition to selexipag; conditions: for patients with worsened FC / patients with improved FC: all transitioned patients
Description: as §1, §2, §3

[5] = transitioned from parenteral non-selexipag PPA, 6 months
[6] = transitioned from oral/inhaled non-selexipag PPA, 6 months
[7] = transitioned from oral/inhaled non-selexipag PPA, 12 months
[8] = transitioned from parenteral non-selexipag PPA, 12 months

In the case of `CC(C)N(CCCCOCC(=O)NS(C)(=O)=O)c1cnc(-c2ccccc2)c(-c2ccccc2)n1` [selexipag, 2-{4-[(5,6-diphenylpyrazin-2-yl)(propan-2-yl)amino]butoxy}-N-(methanesulfonyl)acetamide], the 6MWD versus baseline ([1]; all patients, 12 months) is reported as “modest increase in 6MWD”, the 6MWD versus baseline ([1]; transitioned from oral/inhaled PPA, 6 months) is reported as “increased 6MWD” and the “median 6MWD versus baseline” value [1, 5] is reported as “decreased median 6MWD from baseline”. For the same molecule, the “AE leading to selexipag discontinuation: Acute respiratory failure, %” value ([2]; All Patients (N = 56)) was “(1.8) %”, the “AE leading to selexipag discontinuation: Arthralgia, %” value ([2]; All Patients (N = 56)) was “(1.8) %” and the “AE leading to selexipag discontinuation: Cardiac arrest, %” value ([2]; All Patients (N = 56)) was “(1.8) %”. The “AE leading to selexipag discontinuation: Cardiac disorders, %” value (“AE leading … Cardiac disorders, %” below) ([2]; All Patients (N = 56)) was “(7.1) %”, the “AE leading to selexipag discontinuation: Cardiac failure congestive, %” value ([2]; All Patients (N = 56)) was “(1.8) %” and the “AE leading to selexipag discontinuation: Fluid overload, %” value ([2]; All Patients (N = 56)) was “(1.8) %”. For the same molecule, the “AE leading to selexipag discontinuation: Headache, %” value ([2]; All Patients (N = 56)) was “(1.8) %”, the “AE leading to selexipag discontinuation: Investigations, % (Right ventricular systolic pressure)” value ([2]; All Patients (N = 56)) was “(1.8) %” and the “AE leading to selexipag discontinuation: Investigations, n (Right ventricular systolic pressure)” value ([2]; All Patients (N = 56)) was 1 n. For the same molecule, the “AE leading to selexipag discontinuation: Musculoskeletal and connective tissue disorders, %” value ([2]; All Patients (N = 56)) was “(1.8) %”, the “AE leading to selexipag discontinuation: Nervous system disorders, %” value ([2]; All Patients (N = 56)) was “(1.8) %” and the “AE leading to selexipag discontinuation: Respiratory failure, %” value ([2]; All Patients (N = 56)) was “(1.8) %”. The “AE leading to selexipag discontinuation: Respiratory, thoracic and mediastinal disorders, %” value ([2]; All Patients (N = 56)) was “(8.9) %”, the “AE leading to selexipag discontinuation: Right ventricular failure, %” value ([2]; All Patients (N = 56)) was “(1.8) %” and the “AE leading to selexipag discontinuation: Right ventricular systolic pressure increased, %” value ([2]; All Patients (N = 56)) was “(1.8) %”. The “AE leading to selexipag discontinuation: Worsening pulmonary hypertension, %” value ([2]; All Patients (N = 56)) was “(5.4) %”, the “AE leading to selexipag discontinuation: Acute respiratory failure, %” value ([2]; Inhaled/Oral (n = 36)) was 2.8% and the “AE leading to selexipag discontinuation: Arthralgia, %” value ([2]; Inhaled/Oral (n = 36)) was 2.8%. For the same molecule, the “AE leading to selexipag discontinuation: Cardiac arrest, %” value ([2]; Inhaled/Oral (n = 36)) was 2.8%, the “AE leading … Cardiac disorders, %” value ([2]; Inhaled/Oral (n = 36)) was 5.6% and the “AE leading to selexipag discontinuation: Cardiac failure congestive, %” value ([2]; Inhaled/Oral (n = 36)) was 2.8%. For the same molecule, the “AE leading to selexipag discontinuation: Headache, %” value ([2]; Inhaled/Oral (n = 36)) was 2.8%, the “AE leading to selexipag discontinuation: Investigations, n (Right ventricular systolic pressure)” value ([2]; Inhaled/Oral (n = 36)) was 0 n and the “AE leading to selexipag discontinuation: Musculoskeletal and connective tissue disorders, %” value ([2]; Inhaled/Oral (n = 36)) was 2.8%. The “AE leading to selexipag discontinuation: Nervous system disorders, %” value ([2]; Inhaled/Oral (n = 36)) was 2.8%, the “AE leading to selexipag discontinuation: Patients with at least one AE, %” value ([2]; Inhaled/Oral (n = 36)) was 16.7% and the “AE leading to selexipag discontinuation: Respiratory failure, %” value ([2]; Inhaled/Oral (n = 36)) was 2.8%. The “AE leading to selexipag discontinuation: Respiratory, thoracic and mediastinal disorders, %” value ([2]; Inhaled/Oral (n = 36)) was 5.6%, the “AE leading … Cardiac disorders, %” value ([2]; Parenteral (n = 20)) was “(10.0) %” and the “AE leading to selexipag discontinuation: Fluid overload, %” value ([2]; Parenteral (n = 20)) was “(5.0) %”. The “AE leading to selexipag discontinuation: Investigations, % (Right ventricular systolic pressure)” value ([2]; Parenteral (n = 20)) was “(5.0) %”, the “AE leading to selexipag discontinuation: Investigations, n (Right ventricular systolic pressure)” value ([2]; Parenteral (n = 20)) was 1 n and the “AE leading to selexipag discontinuation: Respiratory, thoracic and mediastinal disorders, %” value ([2]; Parenteral (n = 20)) was “(15.0) %”. The “AE leading to selexipag discontinuation: Right ventricular failure, %” value ([2]; Parenteral (n = 20)) was “(5.0) %”, the “AE leading to selexipag discontinuation: Right ventricular systolic pressure increased, %” value ([2]; Parenteral (n = 20)) was “(5.0) %” and the “AE leading to selexipag discontinuation: Worsening pulmonary hypertension, %” value ([2]; Parenteral (n = 20)) was “(15.0) %”. The “patients who discontinued selexipag” value ([2]; non-transitioned patients (65 of 194)) was 33.5%, the “patients who discontinued selexipag” value ([2]; transitioned patients (16 of 56)) was 28.6% and the “patients with improved risk status” value [3, 6] was 21%. For the same molecule, the “patients with maintained risk status” value [3, 6] was 63%, the “patients with worsened risk status” value [3, 6] was 17% and the “patients with improved FC (in the risk status paragraph)” value [3, 7] was 24%. For the same molecule, the “patients with maintained risk status” value [3, 7] was 61%, the “patients with worsened FC (in the risk status paragraph)” value [3, 7] was 15% and the “patients with improved risk status” value [3, 5] was 27%. The “patients with maintained or improved risk status” value [3, 5] was 67%, the “patients with maintained risk status” value [3, 5] was 40% and the “patients with worsened risk status” value [3, 5] was 33%. The “patients with improved risk status” value [3, 8] was 29%, the “patients with maintained or improved risk status” value [3, 8] was 86% and the “patients with maintained risk status” value [3, 8] was 57%. For the same molecule, the “patients with worsened risk status” value [3, 8] was 14%, the “disease course in the majority of patients as indicated by FC, 6MWD, and risk status” value ([4]; 12 months after transitioning, regardless of type of prior non-selexipag PPA) was “unchanged or improved disease” and the “patients with worsened FC” value ([4]; 6 months vs baseline) was “none”. The “patients with improved FC” value ([4]; 6 months vs baseline, data for 46% of patients) was 27%, the “patients with worsened FC” value ([4]; 12 months vs baseline) was 10% and the “patients with improved FC” value ([4]; 12 months vs baseline, data for 70% of patients) was 21%. The FC versus baseline ([4]; transitioned patients, at 6 and 12 months) was “maintained in the majority of transitioned patients”.
